Experimental data published in PubChem BioAssay AID1919001 (Molecular Pharmacology Branch, DTP, NCI, 2023).

Tested on: 699152-130-R-J1-PDC complex spheroid growth
Test: Anticancer human tumor 699152-130-R-J1-PDC patient-derived pancreatic carcinoma cell line growth inhibition [AhR]
Conditions: for IC50: curve of first compound; for viability, T/C: stronger effect = lower value
Description: Multicellular complex tumor spheroid response to aryl hydrocarbon receptor antagonists in combination with a variety of drugs and investigational agents in selected tumor cell lines
The current study was undertaken to assess response to aryl hydrocarbon receptor antagonists in combination with standard-of-care drugs and investigational agents in solid tumor complex spheroid models. Complex spheroids include a stromal component modeled by human endothelial cells (HUVEC) and fibroblasts modeled by human mesenchymal stem cells (MSCs). The concentration ranges selected for each drug and investigational agent were based upon clinically achievable concentrations if the clinical Cmax of the agent was known.
Compounds. The drugs and investigational agents: BAY 2416964 (NSC825713), GNF351 (NSC835774), CH-223191 (NSC835775), CPI-455 (NSC825282), aza-TdCyd (NSC777586), decitabine (NSC127716), belinostat (NSC758774), entinostat (NSC756642), pevonedistat (NSC761192), tazemetostat (NSC777109), talazoparib (NSC765396), olaparib (NSC753686), selinexor (NSC780203), nedisertib (M3814, NSC802822), bortezomib (NSC756655), venetoclax (NSC766270), doxorubicin (NSC123127), elimusertib (BAY189344, NSC800525), ceralasertib (AZD6738, NSC777638), TAK-243 (NSC785004), alisertib (NSC759677), etoposide (NSC141540), topotecan (NSC609699), eribulin (NSC707389), gemcitabine (NSC613327), carboplatin (NSC241240), cisplatin (NSC119875), and SN-38 (NSC673596) were obtained from the National Cancer Institute (NCI) Developmental Therapeutics Program Chemical Repository (32). The FDA-approved anticancer drug set is available from the Developmental Therapeutics Program at https://dtp.cancer.gov/organization/dscb/obtaining/available plates.htm. […] The stock solutions were prepared in dimethyl sulfoxide (DMSO, Sigma-Aldrich, St. Louis, MO, cat. D2650), except for the platinum compounds which were prepared in saline (Quality Biological, Gaithersburg, MD, cat. 114-055-101), at 800-fold the tested concentration and stored at -70 degrees C prior to their use. All drugs and investigational agents were tested over a range starting from a high concentration at or near the clinical Cmax and decreasing in half-log increments. If the clinical Cmax for an agent had not been determined, the highest concentration tested was 10 microM (Table 1).
Cell Culture. All cells were maintained in an incubator at 37 degrees C and 5% CO2 with 95% humidity. The PDC lines were cultured according to standard operating procedures established by the NCI PDMR (https://pdmr.cancer.gov). Briefly, all PDCs were thawed and cultured in Matrigel-coated flasks prepared with a working solution of 1X Ham's F-12 nutrient mix, without supplementation (Invitrogen, Waltham, MA, cat. 11765054), 100 U/mL penicillin-streptomycin (Invitrogen, cat. 15140122), and 2.5% Matrigel (Corning Inc., Corning, NY, cat. 354248) for the first three passages. All PDCs were cultured in complete DMEM/F-12 media containing advanced DMEM/F-12 (Invitrogen, cat. 12634028), 4.9% defined fetal bovine serum, heat inactivated (HyClone Laboratories Inc., Logan, UT, cat. SH30070.03HI), 389 ng/mL hydrocortisone (Sigma-Aldrich, cat. H4001), 9.7 ng/mL human EGF recombinant protein (Invitrogen, cat. PHG0313), 23.4 microg/mL adenine (Sigma-Aldrich, cat. A2786), 97.3 U/mL penicillin-streptomycin (Invitrogen, cat. 15140122), 1.9 mM L-glutamine (Invitrogen, cat. 25030081), and 9.7 microM Y-27632 dihydrochloride (Tocris Bioscience, Bristol, United Kingdom, cat. 1254). The PDCs were cultured in complete DMEM/F12 media without 10 microM Y-27632 dihydrochloride for at least two passages prior to the screen. The established cell lines NCI-H1341 and […] were cultured in DMEM/F-12, HEPES (Invitrogen, cat. 11330032), 5% defined fetal bovine serum (HyClone Laboratories Inc., cat. SH30070.03), ITS premix universal culture supplement [insulin (5 microg/mL), transferrin (5 microg/mL), and selenious acid (5 ng/mL)] […]

[1] = second compound 0.1 µM, first compound 0.0316 µM
[2] = second compound 0.1 µM, first compound 0.1 µM
[3] = second compound 0.1 µM, first compound 0.316 µM
[4] = second compound 0.1 µM, first compound 1 µM
[5] = second compound 0.1 µM, first compound 3.16 µM
[6] = second compound 0.1 µM, first compound 10 µM
[7] = second compound 0.316 µM, first compound 0.0316 µM
[8] = second compound 0.316 µM, first compound 0.1 µM
[9] = second compound 0.316 µM, first compound 0.316 µM
[10] = second compound 0.316 µM, first compound 1 µM
[11] = second compound 0.316 µM, first compound 3.16 µM
[12] = second compound 0.316 µM, first compound 10 µM
[13] = second compound 1 µM, first compound 0.0316 µM
[14] = second compound 1 µM, first compound 0.1 µM
[15] = second compound 1 µM, first compound 0.316 µM
[16] = second compound 1 µM, first compound 1 µM
[17] = second compound 1 µM, first compound 3.16 µM
[18] = second compound 1 µM, first compound 10 µM
[19] = second compound 3.16 µM, first compound 0.0316 µM
[20] = second compound 3.16 µM, first compound 0.1 µM
[21] = second compound 3.16 µM, first compound 0.316 µM
[22] = second compound 3.16 µM, first compound 1 µM
[23] = second compound 3.16 µM, first compound 3.16 µM
[24] = second compound 3.16 µM, first compound 10 µM
[25] = second compound 10 µM, first compound 0.0316 µM
[26] = second compound 10 µM, first compound 0.1 µM
[27] = second compound 10 µM, first compound 0.316 µM
[28] = second compound 10 µM, first compound 1 µM
[29] = second compound 10 µM, first compound 3.16 µM
[30] = second compound 10 µM, first compound 10 µM
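Note: compound exposure lasted 7 days after spheroids had grown for 3 days.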

| IC50 (second compound 0.1 µM) | IC50 (second compound 0.316 µM) | IC50 (second compound 1 µM) | IC50 (second compound 3.16 µM) | IC50 (second compound 10 µM) | SMILES | viability, T/C [1] | viability, T/C [2] | viability, T/C [3] | viability, T/C [4] | viability, T/C [5] | viability, T/C [6] | viability, T/C [7] | viability, T/C [8] | viability, T/C [9] | viability, T/C [10] | viability, T/C [11] | viability, T/C [12] | viability, T/C [13] | viability, T/C [14] | viability, T/C [15] | other results |
| --- | --- | --- | --- | --- | --- | --- | --- | --- | --- | --- | --- | --- | --- | --- | --- | --- | --- | --- | --- | --- | --- |
| 5.75 µM | 10 µM | 7.01 µM | 2.91 µM | 9.15 µM | Nc1ccn(C2OC(CO)C(O)C2(F)F)c(=O)n1 (stereo not given) + CC(CO)NC(=O)c1cc(-c2ccc(Cl)cc2)nn(-c2cnn(C)c2)c1=O | 67.1% | 73.4% | 62% | 56.4% | 52.6% | 48.1% | 67% | 73.1% | 50.8% | 53.6% | 50.6% | 47% | 68.8% | 69.5% | 63.5% | viability, T/C [16]: 61.5%; viability, T/C [17]: 56.7%; viability, T/C [18]: 47.1%; viability, T/C [19]: 66.1%; viability, T/C [20]: 67.4%; viability, T/C [21]: 55.8%; viability, T/C [22]: 54.3%; viability, T/C [23]: 49.2%; viability, T/C [24]: 46.3%; viability, T/C [25]: 68.9%; viability, T/C [26]: 70.7%; viability, T/C [27]: 62%; viability, T/C [28]: 60.9%; viability, T/C [29]: 53.9%; viability, T/C [30]: 50% |
| > 10 µM | > 10 µM | > 10 µM | > 10 µM | > 10 µM | O=C(c1cc(Cc2n[nH]c(=O)c3ccccc23)ccc1F)N1CCN(C(=O)C2CC2)CC1 + CC(CO)NC(=O)c1cc(-c2ccc(Cl)cc2)nn(-c2cnn(C)c2)c1=O | 85.1% | 107% | 93.3% | 81.8% | 97% | 89.5% | 93% | 88.3% | 88.8% | 87.7% | 77.3% | 78% | 87.6% | 95.9% | 93.4% | viability, T/C [16]: 86.6%; viability, T/C [17]: 85.5%; viability, T/C [18]: 77.4%; viability, T/C [19]: 82.8%; viability, T/C [20]: 93.1%; viability, T/C [21]: 85.5%; viability, T/C [22]: 80.5%; viability, T/C [23]: 65.6%; viability, T/C [24]: 69.7%; viability, T/C [25]: 84.3%; viability, T/C [26]: 83.1%; viability, T/C [27]: 80%; viability, T/C [28]: 75.3%; viability, T/C [29]: 79.3%; viability, T/C [30]: 69.9% |
